We go through one compound from publication PMC11904221 (EMBO Molecular Medicine, 2025).

The conditions of data set [1]: mouse, in vivo, ip. The procedure:
A single intraperitoneal injection on day 1 was followed by a 14-day observation period. Parameters monitored included mortality, morbidity, clinical signs, and body weight. At the study’s end, gross pathology and organ necropsy were conducted. […] Evaluations encompassed clinical observations, body weight, food consumption, hematology, blood chemistry, gross pathology, selected organ necropsy, and weight, and histopathology examinations. Comprehensive study details are in Appendix pharmacological studies-1 and -2. […]
was assessed in the present study.
Methods: 4 groups (5 males and 5 females per group) were assigned for this study. In each gender, reference item control groups (1F+1M) received the reference item (Saline Solution, NaCl 0,9%) and 3 treated groups […]
4F+4M) mg/kg. All animals were IP dosed and followed daily for 2 weeks (5 days a week). During the study, mortality and general clinical observation, body weight, food consumption, hematology, blood chemistry, gross pathology, selected organ necropsy and weight and histopathology examination of control and high dose groups […]
dosing of five female and five male mice (Table 1 and Table 2). The choice of the number and the gender of the animals were based on OECD guidelines.
Study variables and end points […]
Observations for signs of morbidity and mortality were performed daily. […] The time of death was recorded as precisely as possible. […]

Data set [2] is described as follows: Pharmacokinetic profile in mice, LC/MS. In kind it is in vivo, mouse. The settings on record: mouse, iv, 100 mg/kg. The procedure:
Pharmacokinetic profile of APLN-DM in mice
The aim of the current study was to evaluate pharmacokinetic properties of APLN-DM peptide administrated intravenously (IV) or intraperitoneously (IP) in Balb/C mice. […]
for the IP group). Development of quantification method was performed using liquid chromatography coupled to mass spectrometry (LC/MS).
Results: Samples obtained in vivo were analyzed according to quantification-developed method and the peptide was detectable until 15 minutes after administration. Analysis allowed determining that APLN-DM […]
All animals were divided to three groups of 27 animals, one of 12 animals and one of 3 animals (vehicle) and will receive the corresponding test item according to Table 1. Each animal was weighed and administered at the appropriate volume.
Concentration ROA Blood Individual animal numbers
Group No. Treatment Dose Collect
Table 11 - Group allocation
Development of analytic method
Standard range from 0.5 to 100 µM was prepared and analysed for each fragmented ion as previously […]
Standard curves obtained for each ion are represented in Figure 6.
Figure 8: Standard curves obtained by quantification of each fragmented ion The best linearity was obtained by quantifying the fragmented ion 785 (z=5).
Quantification of APLN-DM in samples
Summary of analytical method development:
Quantification method was performed according to previous work. In summary, samples were analysed with a LC-MS triple quadripole system (ESI QqQ). The chromatographic system was a UPLC activity (Waters) coupled to a mass spectrometer TSQ Quantum Ultra (Thermo) equipped with triple quadripole analyser and electrospray ionisation (ESI) system. The selected column was Kinetex F5 […] 50x2.1 mm (Phenomenex). The analysis was made by quantifying fragmented ion z=5 (m/z=785) in samples compared […]
quantitation was previously determined to be 0.5 µM. Samples were analysed after protein precipitation as […]
In vivo phase samples analysis
As the stability of peptide is low, even in frozen plasma, it was decided to re-run the in vivo phase for the highest dose and to use freshly prepared samples.
26 samples were used for analysis.
Only samples taken 5 and 10 minutes after peptide administration presented detectable concentrations (see
Table 9). While 15 min results were on the level of accuracy (linearity threshold values). At a later time […]
estimated based on the 5 and 10 min measurements.
Sample ID Area Calculated amount

The conditions of data set [3]: for microsomal CLint: liver microsomes.
The conditions of data set [4]: mouse.

Where two headings read alike, the source gives them in different places. Where a SMILES comes first, the peptide text is derived from it.

Turning to `CSCC[C@H](NC(=O)[C@@H]1CCCN1C(=O)CNC(=O)[C@H](CCCCN)NC(=O)[C@H](Cc1c[nH]cn1)NC(=O)[C@H](CO)NC(=O)[C@H](CC(C)C)NC(=O)[C@H](CCCNC(=N)N)NC(=O)[C@@H]1CCCN1C(=O)[C@H](CCCNC(=N)N)NC(=O)[C@H](CCC(N)=O)NC(=O)[C@H](CO)NC(=O)[C@H](CO)NC(=O)[C@H](Cc1ccccc1)NC(=O)[C@H](CCCCN)NC(=O)[C@H](CO)NC(=O)[C@H](CO)NC(=O)CNC(=O)CNC(=O)[C@H](CCC(N)=O)NC(=O)[C@H](Cc1c[nH]c2ccccc12)NC(=O)[C@@H]1CCCN1C(=O)CNC(=O)[C@@H]1CCCN1C(=O)CNC(=O)[C@H](CC(N)=O)NC(=O)[C@H](CCCNC(=N)N)NC(=O)[C@H](CO)NC(=O)CNC(=O)[C@H](CCCNC(=N)N)NC(=O)[C@@H]1CCCN1C(=O)[C@H](CCC(N)=O)NC(=O)[C@@H](NC(=O)[C@@H](N)CC(C)C)C(C)C)C(=O)N1CCC[C@H]1C(=O)N[C@@H](Cc1ccccc1)C(=O)O` [APLN-DM] (H-LVQPRGSRNGPGPWQGGSSKFSSQRPRLSHKGPMPF-OH), the “MTD repeated administrations / highest tested dose found safe” value in data set [1] is on record as 300 mg/kg/day. Further, the level at time molar at 5 min in data set [2] (Balb/C, plasma, group 2F, 100 mg/kg IV, 5 min, samples 1-3, no unit printed (standards in µM), read-out: Calculated amount in plasma sample) is 0.793 µM. In addition, the level at time molar at 10 min in data set [2] (Balb/C, plasma, group 2F, 100 mg/kg IV, 10 min, samples 1-3, read-out: Calculated amount in plasma sample) was 658 nM. Besides, in data set [2] (female, Balb/C mice plasma, LC/MS, estimated from the 5 and 10 min samples, read-out: half-life in vivo in mice), the half-life is roughly 0.333 h. Further, in data set [3], the clearance category entry is given as “high” and the intrinsic metabolic clearance (microsomal CLint) is less than 116 µL/min/mg. Besides, in data set [3] (human), the “Half-life, 1st” value was determined as 1.24 h; the “Half-life, 2nd” value was determined as 1.14 h; the “Half-life, Mean” value was greater than 1 h; the intrinsic clearance (microsomal CLint) was less than 116 µL/min/mg. Also, in data set [4], the “Half-life, 1st” value turned out to be 0.645 h and the “Half-life, 2nd” value was found to be 1.867 h. In data set [4] (liver microsomes), this compound yielded a half-life greater than 1 h and a microsomal CLint of less than 116 µL/min/mg.
